How the values were obtained:
[1] = target: Casein kinase II subunit alpha' (Homo sapiens) (UniProt P19784); assay: CSNK2A2 DiscoveRx kinase panel; conditions: Compound concentration 1.0 uM
[2] = target: Dual specificity tyrosine-phosphorylation-regulated kinase 1B (Homo sapiens, UniProt Q9Y463); assay: DYRK1B DiscoveRx kinase panel
[3] = target: Angiopoietin-1 receptor (Homo sapiens) (UniProt Q02763); assay: TIE2 DiscoveRx kinase panel; conditions: Compound concentration 1.0 uM
[4] = target: Microtubule-associated serine/threonine-protein kinase 1 (Homo sapiens) (UniProt Q9Y2H9); assay: MAST1 DiscoveRx kinase panel; conditions: Compound concentration 1.0 uM
[5] = target: Serine/threonine-protein kinase Nek6 (Homo sapiens) (UniProt Q9HC98); assay: NEK6 DiscoveRx kinase panel; conditions: Compound concentration 1.0 uM
[6] = target: Receptor-interacting serine/threonine-protein kinase 4 (Homo sapiens) (UniProt P57078); assay: RIPK4 DiscoveRx kinase panel; conditions: Compound concentration 1.0 uM
[7] = target: Dual specificity mitogen-activated protein kinase kinase 5 (Homo sapiens) (UniProt Q13163); assay: MEK5 DiscoveRx kinase panel; conditions: Compound concentration 1.0 uM
[8] = target: Serine/threonine-protein kinase MAK (Homo sapiens) (UniProt P20794); assay: MAK DiscoveRx kinase panel; conditions: Compound concentration 1.0 uM
[9] = target: Cyclin-dependent kinase 19 (Homo sapiens) (UniProt Q9BWU1); assay: CDK11 DiscoveRx kinase panel; conditions: Compound concentration 1.0 uM
[10] = target: Tyrosine-protein kinase Fes/Fps (Homo sapiens) (UniProt P07332); assay: FES DiscoveRx kinase panel; conditions: Compound concentration 1.0 uM
[11] = target: Ribosomal protein S6 kinase alpha-1 (Homo sapiens) (UniProt Q15418); assay: RSK1(Kin.Dom.1-N-terminal) DiscoveRx kinase panel; conditions: Compound concentration 1.0 uM
[12] = target: Ribosomal protein S6 kinase alpha-2 (Homo sapiens) (UniProt Q15349); assay: RSK3(Kin.Dom.1-N-terminal) DiscoveRx kinase panel; conditions: Compound concentration 1.0 uM
[13] = target: Mitogen-activated protein kinase kinase kinase kinase 5 (Homo sapiens) (UniProt Q9Y4K4); assay: MAP4K5 DiscoveRx kinase panel; conditions: Compound concentration 1.0 uM
[14] = target: Mitogen-activated protein kinase 11 (Homo sapiens) (UniProt Q15759); assay: p38-beta DiscoveRx kinase panel; conditions: Compound concentration 1.0 uM
[15] = target: Serine/threonine-protein kinase ICK (Homo sapiens) (UniProt Q9UPZ9); assay: ICK DiscoveRx kinase panel; conditions: Compound concentration 1.0 uM
[16] = target: Cyclin-dependent kinase 14 (Homo sapiens) (UniProt O94921); assay: PFTK1 DiscoveRx kinase panel; conditions: Compound concentration 1.0 uM
[17] = target: Cyclin-dependent kinase 2 (Homo sapiens) (UniProt P24941); assay: CDK2 DiscoveRx kinase panel; conditions: Compound concentration 1.0 uM
[18] = target: Tyrosine-protein kinase Fyn (Homo sapiens) (UniProt P06241); assay: FYN DiscoveRx kinase panel; conditions: Compound concentration 1.0 uM
[19] = target: Dual specificity mitogen-activated protein kinase kinase 4 (Homo sapiens) (UniProt P45985); assay: MEK4 DiscoveRx kinase panel; conditions: Compound concentration 1.0 uM
[20] = target: Serine/threonine-protein kinase VRK2 (Homo sapiens) (UniProt Q86Y07); assay: VRK2 DiscoveRx kinase panel; conditions: Compound concentration 1.0 uM
[21] = target: Mitogen-activated protein kinase kinase kinase 3 (Homo sapiens) (UniProt Q99759); assay: MAP3K3 DiscoveRx kinase panel; conditions: Compound concentration 1.0 uM
[22] = target: Cyclin-dependent kinase 15 (Homo sapiens) (UniProt Q96Q40); assay: PFTAIRE2 DiscoveRx kinase panel; conditions: Compound concentration 1.0 uM
[23] = target: Activin receptor type-1 (Homo sapiens) (UniProt Q04771); assay: ACVR1 DiscoveRx kinase panel; conditions: Compound concentration 1.0 uM
[24] = target: Ribosomal protein S6 kinase alpha-3 (Homo sapiens) (UniProt P51812); assay: RSK2(Kin.Dom.2-C-terminal) DiscoveRx kinase panel; conditions: Compound concentration 1.0 uM
[25] = target: Serine/threonine-protein kinase 35 (Homo sapiens) (UniProt Q8TDR2); assay: STK35 DiscoveRx kinase panel; conditions: Compound concentration 1.0 uM
[26] = target: Activin receptor type-2A (Homo sapiens) (UniProt P27037); assay: ACVR2A DiscoveRx kinase panel; conditions: Compound concentration 1.0 uM
[27] = target: RAC-alpha serine/threonine-protein kinase (Homo sapiens) (UniProt P31749); assay: AKT1 DiscoveRx kinase panel; conditions: Compound concentration 1.0 uM
[28] = target: 5'-AMP-activated protein kinase catalytic subunit alpha-1 (Homo sapiens) (UniProt Q13131); assay: AMPK-alpha1 DiscoveRx kinase panel; conditions: Compound concentration 1.0 uM
[29] = target: Cytoplasmic tyrosine-protein kinase BMX (Homo sapiens) (UniProt P51813); assay: BMX DiscoveRx kinase panel; conditions: Compound concentration 1.0 uM
[30] = target: Tyrosine-protein kinase BTK (Homo sapiens) (UniProt Q06187); assay: BTK DiscoveRx kinase panel; conditions: Compound concentration 1.0 uM
[31] = target: Dual specificity protein kinase CLK1 (Homo sapiens) (UniProt P49759); assay: CLK1 DiscoveRx kinase panel; conditions: Compound concentration 1.0 uM
[32] = target: Death-associated protein kinase 1 (Homo sapiens) (UniProt P53355); assay: DAPK1 DiscoveRx kinase panel; conditions: Compound concentration 1.0 uM
[33] = target: Myotonin-protein kinase (Homo sapiens) (UniProt Q09013); assay: DMPK DiscoveRx kinase panel; conditions: Compound concentration 1.0 uM
[34] = target: Mitogen-activated protein kinase 15 (Homo sapiens) (UniProt Q8TD08); assay: ERK8 DiscoveRx kinase panel; conditions: Compound concentration 1.0 uM
[35] = target: G protein-coupled receptor kinase 3 (Homo sapiens) (UniProt P35626); assay: GRK3 DiscoveRx kinase panel; conditions: Compound concentration 1.0 uM
[36] = target: Serine/threonine-protein kinase PAK 1 (Homo sapiens) (UniProt Q13153); assay: PAK1 DiscoveRx kinase panel; conditions: Compound concentration 1.0 uM
[37] = target: Phosphatidylinositol 4-phosphate 3-kinase C2 domain-containing subunit beta (Homo sapiens) (UniProt O00750); assay: PIK3C2B DiscoveRx kinase panel; conditions: Compound concentration 1.0 uM
[38] = target: Serine/threonine-protein kinase pim-3 (Homo sapiens) (UniProt Q86V86); assay: PIM3 DiscoveRx kinase panel; conditions: Compound concentration 1.0 uM
[39] = target: Phosphatidylinositol 4-phosphate 5-kinase type-1 gamma (Homo sapiens) (UniProt O60331); assay: PIP5K1C DiscoveRx kinase panel; conditions: Compound concentration 1.0 uM
[40] = target: cAMP-dependent protein kinase catalytic subunit beta (Homo sapiens) (UniProt P22694); assay: PKAC-beta DiscoveRx kinase panel; conditions: Compound concentration 1.0 uM
[41] = target: Serine/threonine-protein kinase SIK3 (Homo sapiens) (UniProt Q9Y2K2); assay: QSK DiscoveRx kinase panel; conditions: Compound concentration 1.0 uM
[42] = target: Rho-associated protein kinase 1 (Homo sapiens) (UniProt Q13464); assay: ROCK1 DiscoveRx kinase panel; conditions: Compound concentration 1.0 uM
[43] = target: Ribosomal protein S6 kinase alpha-6 (Homo sapiens) (UniProt Q9UK32); assay: RSK4(Kin.Dom.1-N-terminal) DiscoveRx kinase panel; conditions: Compound concentration 1.0 uM
[44] = target: Proto-oncogene tyrosine-protein kinase Src (Homo sapiens) (UniProt P12931); assay: SRC DiscoveRx kinase panel; conditions: Compound concentration 1.0 uM
[45] = target: TGF-beta receptor type-2 (Homo sapiens) (UniProt P37173); assay: TGFBR2 DiscoveRx kinase panel; conditions: Compound concentration 1.0 uM
[46] = target: 5-hydroxytryptamine receptor 1A (Homo sapiens) (UniProt P08908); assay: Serotonin (5-Hydroxytryptamine) 5-HT1A Eurofins-Panlabs radioligand binding assay; conditions: Compound concentration 10.0 uM
[47] = target: D(4) dopamine receptor (Homo sapiens) (UniProt P21917); conditions: Compound concentration 10.0 uM
[48] = target: Kappa-type opioid receptor (Homo sapiens) (UniProt P41145); conditions: Compound concentration 10.0 uM
[49] = target: Muscarinic acetylcholine receptor M4 (Homo sapiens) (UniProt P08173); conditions: Compound concentration 10.0 uM

Chain of Cyclin-dependent kinase 15 (Homo sapiens) (Q96Q40 whole entry): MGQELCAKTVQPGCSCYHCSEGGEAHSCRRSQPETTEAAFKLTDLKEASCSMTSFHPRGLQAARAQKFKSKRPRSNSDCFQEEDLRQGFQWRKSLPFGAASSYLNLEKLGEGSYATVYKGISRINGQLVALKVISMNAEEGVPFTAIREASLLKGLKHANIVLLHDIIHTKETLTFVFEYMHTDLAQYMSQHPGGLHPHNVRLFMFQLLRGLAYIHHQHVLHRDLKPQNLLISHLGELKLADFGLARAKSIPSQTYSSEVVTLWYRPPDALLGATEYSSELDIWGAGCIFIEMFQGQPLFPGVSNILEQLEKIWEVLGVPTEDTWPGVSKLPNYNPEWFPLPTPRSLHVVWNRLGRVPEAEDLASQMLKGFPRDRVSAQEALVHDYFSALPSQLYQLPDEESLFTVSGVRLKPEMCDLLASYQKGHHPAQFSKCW
Chain of Cytoplasmic tyrosine-protein kinase BMX (Homo sapiens) (P51813 whole entry): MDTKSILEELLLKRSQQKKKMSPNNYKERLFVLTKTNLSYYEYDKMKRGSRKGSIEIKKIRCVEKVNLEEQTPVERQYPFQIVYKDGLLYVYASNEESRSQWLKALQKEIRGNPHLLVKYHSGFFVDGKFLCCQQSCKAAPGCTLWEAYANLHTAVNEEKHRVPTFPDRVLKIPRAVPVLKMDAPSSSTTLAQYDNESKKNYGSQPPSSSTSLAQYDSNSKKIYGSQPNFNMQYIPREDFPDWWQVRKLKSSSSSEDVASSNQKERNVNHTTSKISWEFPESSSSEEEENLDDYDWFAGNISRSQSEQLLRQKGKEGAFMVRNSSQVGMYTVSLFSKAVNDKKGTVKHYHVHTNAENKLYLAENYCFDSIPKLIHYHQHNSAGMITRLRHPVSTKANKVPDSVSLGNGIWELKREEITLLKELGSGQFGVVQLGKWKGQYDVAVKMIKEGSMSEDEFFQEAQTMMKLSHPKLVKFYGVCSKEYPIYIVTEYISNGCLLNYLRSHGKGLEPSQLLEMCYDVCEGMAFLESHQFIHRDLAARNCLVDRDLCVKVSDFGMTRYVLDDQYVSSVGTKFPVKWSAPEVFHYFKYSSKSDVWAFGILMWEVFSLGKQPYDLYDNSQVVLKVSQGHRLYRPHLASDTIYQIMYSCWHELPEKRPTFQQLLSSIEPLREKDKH
Chain of Dual specificity mitogen-activated protein kinase kinase 5 (Homo sapiens) (Q13163 whole entry): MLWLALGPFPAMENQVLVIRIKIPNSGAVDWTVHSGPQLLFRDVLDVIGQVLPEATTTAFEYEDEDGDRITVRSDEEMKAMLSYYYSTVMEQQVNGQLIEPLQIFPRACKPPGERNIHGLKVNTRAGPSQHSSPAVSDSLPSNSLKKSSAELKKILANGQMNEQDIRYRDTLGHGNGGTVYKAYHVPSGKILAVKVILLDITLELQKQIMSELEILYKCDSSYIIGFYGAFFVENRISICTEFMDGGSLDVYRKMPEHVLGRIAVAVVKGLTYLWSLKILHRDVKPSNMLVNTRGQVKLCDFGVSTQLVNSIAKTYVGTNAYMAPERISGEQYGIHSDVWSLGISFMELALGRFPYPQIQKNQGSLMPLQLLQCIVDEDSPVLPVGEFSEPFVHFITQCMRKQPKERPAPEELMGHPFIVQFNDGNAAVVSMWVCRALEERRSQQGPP
Chain of RAC-alpha serine/threonine-protein kinase (Homo sapiens) (P31749 whole entry): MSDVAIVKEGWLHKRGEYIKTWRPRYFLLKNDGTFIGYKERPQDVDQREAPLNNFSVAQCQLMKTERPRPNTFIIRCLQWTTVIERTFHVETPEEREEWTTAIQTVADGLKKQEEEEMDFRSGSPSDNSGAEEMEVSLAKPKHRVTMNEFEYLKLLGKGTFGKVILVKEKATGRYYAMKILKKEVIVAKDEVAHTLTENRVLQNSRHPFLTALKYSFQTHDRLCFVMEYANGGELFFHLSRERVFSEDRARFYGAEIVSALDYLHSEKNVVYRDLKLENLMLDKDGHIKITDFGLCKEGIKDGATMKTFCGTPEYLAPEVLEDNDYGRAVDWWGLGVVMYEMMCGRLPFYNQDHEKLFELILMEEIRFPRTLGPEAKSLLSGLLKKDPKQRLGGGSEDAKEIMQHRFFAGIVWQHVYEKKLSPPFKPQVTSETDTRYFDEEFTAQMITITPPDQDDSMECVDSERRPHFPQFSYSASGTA
Chain of TGF-beta receptor type-2 (Homo sapiens) (P37173 whole entry): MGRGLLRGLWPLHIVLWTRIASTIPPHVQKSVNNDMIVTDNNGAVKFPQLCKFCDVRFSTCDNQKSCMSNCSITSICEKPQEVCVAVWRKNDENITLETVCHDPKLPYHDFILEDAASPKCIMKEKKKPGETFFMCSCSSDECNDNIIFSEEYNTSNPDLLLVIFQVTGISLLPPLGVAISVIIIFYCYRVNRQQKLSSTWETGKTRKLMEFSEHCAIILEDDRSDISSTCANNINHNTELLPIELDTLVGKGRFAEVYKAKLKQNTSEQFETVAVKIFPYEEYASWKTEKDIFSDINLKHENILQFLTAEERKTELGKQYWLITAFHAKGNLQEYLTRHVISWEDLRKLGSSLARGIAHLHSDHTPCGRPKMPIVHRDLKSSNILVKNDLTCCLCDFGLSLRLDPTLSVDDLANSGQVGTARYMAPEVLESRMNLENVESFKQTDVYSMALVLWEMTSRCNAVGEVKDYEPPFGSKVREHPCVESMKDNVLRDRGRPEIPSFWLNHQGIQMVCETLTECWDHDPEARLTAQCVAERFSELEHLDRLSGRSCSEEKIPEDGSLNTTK
Chain of Serine/threonine-protein kinase VRK2 (Homo sapiens) (Q86Y07 whole entry): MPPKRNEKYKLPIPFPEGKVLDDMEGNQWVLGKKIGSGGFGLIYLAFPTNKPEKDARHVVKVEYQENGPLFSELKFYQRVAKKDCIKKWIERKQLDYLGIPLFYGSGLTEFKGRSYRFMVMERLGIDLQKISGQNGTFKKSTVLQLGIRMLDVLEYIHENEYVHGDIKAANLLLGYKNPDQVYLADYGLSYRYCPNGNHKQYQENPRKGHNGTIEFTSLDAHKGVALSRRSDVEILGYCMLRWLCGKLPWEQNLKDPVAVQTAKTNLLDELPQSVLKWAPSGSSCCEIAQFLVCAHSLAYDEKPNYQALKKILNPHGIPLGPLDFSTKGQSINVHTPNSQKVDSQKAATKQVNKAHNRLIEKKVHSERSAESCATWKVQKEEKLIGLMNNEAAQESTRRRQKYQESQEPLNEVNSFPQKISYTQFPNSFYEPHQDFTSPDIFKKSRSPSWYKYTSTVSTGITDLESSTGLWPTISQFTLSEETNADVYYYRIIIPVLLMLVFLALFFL
Chain of Cyclin-dependent kinase 19 (Homo sapiens) (Q9BWU1 whole entry): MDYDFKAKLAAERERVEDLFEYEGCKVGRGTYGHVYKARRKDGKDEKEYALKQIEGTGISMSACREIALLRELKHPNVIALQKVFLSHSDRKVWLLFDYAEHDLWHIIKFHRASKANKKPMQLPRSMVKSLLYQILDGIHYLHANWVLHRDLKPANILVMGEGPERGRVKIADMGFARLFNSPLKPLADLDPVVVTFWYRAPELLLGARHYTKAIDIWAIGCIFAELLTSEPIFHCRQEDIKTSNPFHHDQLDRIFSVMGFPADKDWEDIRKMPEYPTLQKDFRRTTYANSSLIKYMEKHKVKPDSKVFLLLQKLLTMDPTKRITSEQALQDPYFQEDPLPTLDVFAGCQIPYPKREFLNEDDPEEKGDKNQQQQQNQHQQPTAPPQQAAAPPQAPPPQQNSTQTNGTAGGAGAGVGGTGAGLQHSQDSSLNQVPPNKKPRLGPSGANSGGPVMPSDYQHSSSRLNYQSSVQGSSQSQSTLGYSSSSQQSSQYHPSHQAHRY
Chain of Angiopoietin-1 receptor (Homo sapiens) (Q02763 whole entry): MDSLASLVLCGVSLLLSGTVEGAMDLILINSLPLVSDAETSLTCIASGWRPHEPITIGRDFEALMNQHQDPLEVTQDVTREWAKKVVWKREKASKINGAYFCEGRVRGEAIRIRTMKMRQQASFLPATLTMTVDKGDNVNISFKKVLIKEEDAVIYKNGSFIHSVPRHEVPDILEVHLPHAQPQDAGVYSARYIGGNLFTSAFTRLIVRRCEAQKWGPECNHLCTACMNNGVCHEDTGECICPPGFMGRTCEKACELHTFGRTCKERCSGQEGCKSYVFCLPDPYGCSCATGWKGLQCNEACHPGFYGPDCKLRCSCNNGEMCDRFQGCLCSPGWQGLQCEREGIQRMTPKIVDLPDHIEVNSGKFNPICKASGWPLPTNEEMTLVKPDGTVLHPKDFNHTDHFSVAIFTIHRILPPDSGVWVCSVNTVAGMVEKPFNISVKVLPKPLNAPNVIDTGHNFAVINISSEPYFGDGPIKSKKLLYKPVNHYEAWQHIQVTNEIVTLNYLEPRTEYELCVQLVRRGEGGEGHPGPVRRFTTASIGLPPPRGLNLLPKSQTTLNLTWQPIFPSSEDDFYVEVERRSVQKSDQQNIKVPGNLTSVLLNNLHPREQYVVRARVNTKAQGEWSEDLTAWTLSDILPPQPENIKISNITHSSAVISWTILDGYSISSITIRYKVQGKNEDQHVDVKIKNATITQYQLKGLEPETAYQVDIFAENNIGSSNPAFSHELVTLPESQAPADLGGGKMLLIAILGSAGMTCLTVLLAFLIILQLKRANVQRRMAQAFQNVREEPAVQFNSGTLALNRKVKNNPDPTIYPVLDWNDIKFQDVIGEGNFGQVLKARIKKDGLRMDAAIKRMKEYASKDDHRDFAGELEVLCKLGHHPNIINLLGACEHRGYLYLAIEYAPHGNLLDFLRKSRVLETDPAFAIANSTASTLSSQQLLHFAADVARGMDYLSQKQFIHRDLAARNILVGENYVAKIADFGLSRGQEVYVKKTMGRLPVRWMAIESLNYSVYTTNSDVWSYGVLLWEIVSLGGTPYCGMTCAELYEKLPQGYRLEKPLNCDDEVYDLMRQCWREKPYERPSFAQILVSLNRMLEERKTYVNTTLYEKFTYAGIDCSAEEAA

## COc1cnccc1Nc1nc(-c2nn(Cc3c(F)cc(OCCO)cc3F)c3ccccc23)ncc1OC
[1]
  residual activity: 48%
[2]
  Kd: > 30 µM
[2]; Compound concentration 1.0 uM
  residual activity: 6.7%
[3]
  residual activity: 41%
[4]
  residual activity: 63%
[5]
  residual activity: 70%
[6]
  residual activity: 70%
[7]
  residual activity: 71%
[8]
  residual activity: 73%
[9]
  residual activity: 78%
[10]
  residual activity: 80%
[11]
  residual activity: 80%
[12]
  residual activity: 80%
[13]
  residual activity: 81%
[14]
  residual activity: 82%
[15]
  residual activity: 84%
[16]
  residual activity: 87%
[17]
  residual activity: 89%
[18]
  residual activity: 89%
[19]
  residual activity: 90%
[20]
  residual activity: 94%
[21]
  residual activity: 95%
[22]
  residual activity: 96%
[23]
  residual activity: 98%
[24]
  residual activity: 98%
[25]
  residual activity: 99%
[26]
  residual activity: 100%
[27]
  residual activity: 100%
[28]
  residual activity: 100%
[29]
  residual activity: 100%
[30]
  residual activity: 100%
[31]
  residual activity: 100%
[32]
  residual activity: 100%
[33]
  residual activity: 100%
[34]
  residual activity: 100%
[35]
  residual activity: 100%
[36]
  residual activity: 100%
[37]
  residual activity: 100%
[38]
  residual activity: 100%
[39]
  residual activity: 100%
[40]
  residual activity: 100%
[41]
  residual activity: 100%
[42]
  residual activity: 100%
[43]
  residual activity: 100%
[44]
  residual activity: 100%
[45]
  residual activity: 100%
[46]
  inhibition: 0%
[47]
  inhibition: 1.38%
[48]
  inhibition: 15.2%
[49]
  inhibition: 8%

From ChEMBL document CHEMBL5058649, “Data for DCP probe BAY 1816032” (2022)
